Data: paper PMC12112586, “Inhibitory Effect of Fluralaner on GABA Receptor Subunit RDL of Bactrocera dorsalis” (Insects, 2025)

Legend:
[1] = target: T1, BdRDL (GABA receptor subunit RDL) (Bactrocera dorsalis, UniProt A0ABM3JZQ9); assay: two-electrode voltage clamp in Xenopus oocytes, inhibition of GABA (EC50)-induced currents; assay type: cell-based
T1 construct: gene LOC105225059; full-length ORF, 596 amino acids (GenBank XM_049458762), homomeric receptor expressed in Xenopus oocytes
T1 sequence (A0ABM3JZQ9 1-596): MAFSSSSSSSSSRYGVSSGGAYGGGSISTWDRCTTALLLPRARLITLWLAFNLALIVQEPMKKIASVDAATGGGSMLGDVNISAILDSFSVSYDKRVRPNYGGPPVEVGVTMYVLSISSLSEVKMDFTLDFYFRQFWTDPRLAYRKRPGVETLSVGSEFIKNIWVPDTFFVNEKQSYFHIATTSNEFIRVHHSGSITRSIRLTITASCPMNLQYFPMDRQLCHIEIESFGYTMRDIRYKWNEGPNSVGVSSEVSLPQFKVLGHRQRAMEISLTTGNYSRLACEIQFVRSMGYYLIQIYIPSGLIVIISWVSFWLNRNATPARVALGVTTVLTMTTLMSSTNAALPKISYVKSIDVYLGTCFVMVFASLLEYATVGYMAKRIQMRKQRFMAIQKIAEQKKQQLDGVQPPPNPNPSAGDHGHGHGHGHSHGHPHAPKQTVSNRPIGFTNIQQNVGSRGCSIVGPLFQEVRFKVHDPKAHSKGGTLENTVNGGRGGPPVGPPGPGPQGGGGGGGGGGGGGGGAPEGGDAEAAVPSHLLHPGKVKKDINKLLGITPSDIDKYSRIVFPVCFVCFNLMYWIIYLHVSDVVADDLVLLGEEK

[2] = target: T1, BdRDL (GABA receptor subunit RDL); assay: two-electrode voltage clamp in Xenopus oocytes, agonist-induced currents; assay type: cell-based

Row | EC50 [2] | SMILES | IC50 [1]
1 | – | Cc1cc(C2=NOC(c3cc(Cl)cc(Cl)c3)(C(F)(F)F)C2)ccc1C(=O)NCC(=O)NCC(F)(F)F (racemic) [fluralaner] | 0.15 µM
2 | 240 µM | NCCCC(=O)O [GABA] | –
